From patent publication US20080031866A1, “METHOD FOR MODULATING THE PHARMACOKINETICS AND METABOLISM OF A THERAPEUTIC AGENT” (priority 2006, published 2008)

Experiments:
[1] = IV pharmacokinetics of Compound 1 and its glucuronides in rats; assay type: in vivo, rat; conditions: Sprague Dawley, rat, plasma, Compound 1 2 mg/kg IV
Method: Two separate IV studies were carried out using two separate lots of animals. IV-A was run on the same lot of animals as the oral gavage study and IV-B was run on the same lot of animals as the intraduodenal and intra-colonic studies.
For the IV dosing solutions (IV), Compound 1 was prepared by addition to DI water containing 20% hydroxypropyl β-cyclodextran by weight.
For the IV and oral gavage dosing (sampling at jugular and portal vein), young adult male Sprague Dawley rats weighing 250-400 g were purchased from Hilltop Lab Animals Inc. All rat experiments were conducted under approved animal protocols. The rats for the oral gavage dosing were catheterized at Hilltop Lab Animals Inc, had two chronic catheters for sampling: jugular and portal, were housed in cages of Culex™ Automated Blood Sampler (ABS) and blood samples were collected simultaneously via both cannula and were controlled by the Culex™ ABS control software.
(§1) A quantitative method for determining the amount of (6,7-dimethoxy-2,4-dihydro-indeno[1,2-c]pyrazol-3-yl)-(3-fluoro-phenyl)-amine Compound 1 and its major metabolites, glucuronide A (Cpd 1-GluA) and glucuronide B (Cpd 1-GluB) (see Scheme A) in rat plasma was developed using phenacetin as an internal standard. [drawing 1]
(§2) The two glucuronide conjugates were prepared and purified to permit accurate quantification of the levels of intact parent Compound 1 versus Cpd 1-GluA and Cpd 1-GluB. Each standard curve for Compound 1, Cpd 1-GluA, and Cpd 1-GluB generated from rat plasma included ten concentration levels. […] The quantitative procedure for each sample included: sample preparation, HPLC separation and mass spectrometry detection.
(§3) The rat plasma was prepared using protein precipitation techniques. Reference standards and quality control samples in rat plasma for Compound 1 were transferred to a 96 deep-well plate. The precipitation solution contained 100 ng/ml of internal standard in acetonitrile. 300 μl of precipitation solution were added to 100 μl of each standard, quality control and plasma sample. Samples were vortexed for 10 mins, then centrifuged at 4500 RPM for 10 mins. 10 μl of each sample were injected for LC/MS/MS analysis.
(§4) The HPLC column chosen for the bioanalysis was purchased from Thermo Electron (Hypersil BetaBasic C18, 5 cm×2.1 mm). The eluting solvents were composed of Solvent A: 0.1% formic acid in H2O and Solvent B: 0.1% formic acid in acetonitrile. A step gradient was used and flow rate was 300 μl/min. The total run time was 3.2 mins. Solvent B was increased from 35% at 0 min to 75% at 2.1 mins and decreased back to 35% at 2.2 mins. The retention times for Compound 1, phenacetin, Cpd 1-GluA and Cpd 1-GluB were 1.1 min, 0.9 min, 1.3 min, and 1.6 min, respectively.
API3000 with a Turbo Ionspray interface from Applied Biosystems was used for the detection of Compound 1, the internal standard and major metabolites. Electrospray ionization was performed in the positive ion mode heated nebulizer with a temperature of 300° C. LC/MS/MS chromatograms were acquired in MRM (multiple reaction mode). The MRM transitions for Compound 1, the internal standard, Cpd 1-GluA and Cpd 1-GluB were from 326.3 to 190.6, 181.1 to 110.3, 502.2 to 368.3 and 502.2 to 326.4, respectively.
Pharmacokinetic analysis of the plasma concentration data was performed to determine the maximum plasma concentration (Cmax) for the oral dose, and the concentration at zero time (C0; Compound 1 only) by the extrapolation of drug concentrations back to the time of i.v. dosing, the time to maximum plasma concentration (Tmax) following the oral dose, area under the plasma concentration vs. time curve (AUC), terminal half-life (t1/2), plasma clearance (CL/F; Compound 1 only), and volume of distribution at steady state (Vdss; Compound 1 only) for the i.v. dose, using the WinNonlin (Version 3.1, Pharsight, Palo Alto, Calif.) validated computer program.

[2] = Intracolonic dosing with and without β-glucuronidase, catheterized rat; assay type: in vivo; conditions: 10 mg/kg, rats N=6; for AUC / Cmax / concentration at 0 h / concentration at 0.25 h / concentration at 0.5 h / concentration at 1 h / concentration at 2 h / concentration at 3 h / concentration at 4 h / concentration at 5 h / concentration at 6 h: male, Sprague Dawley, rat, plasma; for AUC: read-out: AUC average ± standard deviation 0 to 6 hours; for Cmax: read-out: Cmax average ± standard deviation; for concentration at 0 h / concentration at 0.25 h / concentration at 0.5 h / concentration at 1 h / concentration at 2 h / concentration at 3 h / concentration at 4 h / concentration at 5 h / concentration at 6 h: other: intracolonic
Method: A catheterized rat model was used in which the agent alone or agent and β-glucuronidase enzyme was administered intraduodenally or intracolonically. The intraduodenal and intracolonic dosing was intended to prevent the potential for loss of enzymatic activity when orally dosing the β-glucuronidase (e.g. by degradation in the stomach). […]
For the oral gavage dosing, Compound 1 was prepared in neat PEG-400. For the intraduodenal and intracolonic dosing solutions, Compound 1 was added to neat Tween 80, the mixture was sonicated for thirty minutes at 45° C. until Compound 1 was completely dissolved and then deionized (DI) water was added to form a solution consisting of 20% Tween 80 and 80% DI water by weight.
For the oral enzyme solutions, β-glucuronidase was added to the final formulation at a concentration of 57,600 units/ml.
For the intraduodenal and intracolonic dosing, male Sprague Dawley rats weighing 300-400 g were purchased from Charles River Labs. All rat experiments were conducted under approved animal protocols. The rats were catheterized at Charles River Labs and had one or more of the following chronic catheters for dosing and sampling: jugular/carotid, duodenal, and colonic. Rats were limited to only one GI catheter and one vascular catheter. For IV dosing, rats were purchased with jugular and carotid catheters for dosing in the jugular catheter and blood sampling through the carotid catheter. For intraduodenal/intracolonic dosing, rats had one of the GI catheters for dosing and a carotid catheter for blood sampling.
The surgeries were done two weeks prior to start of testing. Rats were fed 4 hours post dose administration. All rats were dosed without anesthesia and sacrificed at the end of the study.
as §1, §2, §3, §4
API3000 with a Turbo Ionspray interface from Applied Biosystems was used for the detection of Compound 1, the internal standard and major metabolites. Electrospray ionization was performed in the positive ion mode heated nebulizer with a temperature of 300° C. LC/MS/MS chromatograms were acquired in MRM (multiple reaction mode). […]

[3] = Compound 1 10 mg/kg intracolonic with β-glucuronidase
[4] = Compound 1 10 mg/kg intracolonic without enzyme

`COc1cc2c(cc1OC)-c1nn(C3OC(C(=O)O)C(O)C(O)C3O)c(Nc3cccc(F)c3)c1C2` (stereo in doubt) [Cpd 1-GluB] showed an AUC ([1]; male rats N=4, read-out: AUC average ± standard deviation) of 103 ± 47 ng·h/mL, a Cmax ([1]; male rats N=4, read-out: Cmax average ± standard deviation) of 28 ± 3 ng/mL and a concentration at 0 h ([1]; male rats N=4, retro orbital sinus, 0 hrs) of 0 ng/mL. It also gave a concentration at 0.08 h ([1]; male rats N=4, retro orbital sinus, 0.08 hrs) of 21.2 ng/mL, a concentration at 0.33 h ([1]; male rats N=4, retro orbital sinus, 0.33 hrs) of 28.4 ng/mL and a concentration at 1 h ([1]; male rats N=4, retro orbital sinus, 1 hr) of 17.8 ng/mL. The concentration at 2 h ([1]; male rats N=4, retro orbital sinus, 2 hrs) was 5.5 ng/mL, the concentration at 4 h ([1]; male rats N=4, retro orbital sinus, 4 hrs) was 0 ng/mL and the concentration at 8 h ([1]; male rats N=4, retro orbital sinus, 8 hrs) was 0 ng/mL. The concentration at 24 h ([1]; male rats N=4, retro orbital sinus, 24 hrs) was 0 ng/mL, the Tmax ([1]; male rats) was 18 min and the AUC [2, 3] was 176 ± 123 ng·h/mL. The Cmax [2, 3] was 79.4 ± 47.3 ng/mL, the AUC [2, 4] was 499 ± 137 ng·h/mL and the Cmax [2, 4] was 140 ± 56.9 ng/mL. The concentration at 0 h [2, 3] was 0 ng/mL, the concentration at 0.25 h [2, 3] was 508 ± 342 ng/mL and the concentration at 0.5 h [2, 3] was 503 ± 363 ng/mL. The concentration at 1 h [2, 3] was 676 ± 586 ng/mL, the concentration at 2 h [2, 3] was 275 ± 260 ng/mL and the concentration at 3 h [2, 3] was 271 ± 181 ng/mL. It also gave a concentration at 4 h [2, 3] of 194 ± 165 ng/mL, a concentration at 5 h [2, 3] of 146 ± 84.4 ng/mL and a concentration at 6 h [2, 3] of 119 ± 108 ng/mL. For the same molecule, the concentration at 0 h [2, 4] was 0 ng/mL, the concentration at 0.25 h [2, 4] was 70.2 ± 29.3 ng/mL and the concentration at 0.5 h [2, 4] was 72.4 ± 28.2 ng/mL. It also gave a concentration at 1 h [2, 4] of 51.2 ± 24.9 ng/mL, a concentration at 2 h [2, 4] of 13.5 ± 5.5 ng/mL and a concentration at 3 h [2, 4] of 7.1 ± 5 ng/mL. For the same molecule, the concentration at 4 h [2, 4] was 9.6 ± 6.7 ng/mL, the concentration at 5 h [2, 4] was 9.2 ± 4.1 ng/mL and the concentration at 6 h [2, 4] was 10.4 ± 4 ng/mL. For the same molecule, the “AUC average ± standard deviation 0 to 6 hours” value [2, 3] was 175.9 ± 123.1 ng·h/mL and the “AUC average ± standard deviation 0 to 6 hours” value [2, 4] was 498.7 ± 137.2 ng·h/mL.
